Data on 38 compounds can be found in article PMC3221503, “Study on Cytochrome P-450 Dependent Retinoic Acid Metabolism and its Inhibitors as Potential Agents for Cancer Therapy” (Scientia Pharmaceutica, 2011).

In data set [1] the test system is cytochrome P-450 dependent retinoic acid metabolism in male rat hepatic microsomes. The data set can be described thus: RA metabolism assay: in vitro inhibition of retinoic acid metabolism by P-450 inhibitors. Particulars: inhibitor 100 μM, RA 3 μM, male rat hepatic microsomes 0.12 mg/ml, 37°C, 15 min, mean of three determinations, (-) denotes stimulation of RA metabolism.
Description: (§1) Controls (10 μl, DMSO) were also carried with each experiment.
(§2) The assay followed a previously described one [17]: The column was a 10 μm C18 μ Bondapak (3.9× 300mm, Millipore) and the mobile phase was acetonitrile: water: formic acid (75:25:0.05v/v) containing 10 mM ammonium acetate. Flow rate was 1.2 ml.Min^−1. Eluted ^3H compounds were detected on line by a model 970 detector (Reeve) using Hisafe III scintillation fluid. The retention time of ^3H-RA was 10 min and oxidative metabolites of ^3H-RA were detected, eluting samples over 3 to 7 min. Metabolism was determined from the % conversion of RA into its total metabolites based on AUC values.
(§3) Three separate experiments (each with triplicate tubes) were carried out.
(§4) The IC50 for ketoconazole and liarozole were determined for comparative purposes.
(§5) The IC50 was calculated from a plot of percentage inhibition versus log inhibitor concentration using Cricket Graph 1.3.

Data set [2] deals with cytochrome P-450 dependent retinoic acid metabolism. The data set is described as above. Particulars: male, rat.
Description: as §1, §2, §3, §4, §5
Data set [3] has as its system cytochrome P-450 dependent retinoic acid metabolism in male rat hepatic microsomes. The settings on record: pH 7.4.
Description: as §1, §2, §3, §4, §5
The test system of the next data set is mouse embryo. Details: method as in PMID 1965892. Particulars: cited from earlier work.
Details of data set [4]: method as in PMID 1328295. The settings on record: cleared from the plasma; cited from earlier work.
Setting [5] is: rat liver microsomes, pH 7.4, probe 3H-retinoic acid (RA), 3 μM.

Where two headings read alike, the source gives them in different places.

For `c1ccc(Cn2ccnc2)cc1` [1-Benzylimidazole], in data set [1], the “% Inhibition of retinoic acid metabolism” value came to 7.6%.

For `c1csc(-c2nnco2)c1` [2-(Thiophen-2-yl)-1,3,4-oxadiazole], in data set [2] (setting [5]), the inhibition (usually the change of the read-out against control, counted positive when it falls) at 15 min, 100 μM came to 0%. As to `Cc1nc2cc(-c3ccccc3)ccc2o1` [2-Methyl-5-phenyl-1,3-benzoxazole], the inhibition at 15 min, 100 μM in data set [2] (setting [5]) amounted to 18%.

On to `Brc1ccc(-c2csnn2)cc1` [4-(4-Bromophenyl)-1,2,3-thiadiazole], for which the inhibition at 15 min, 100 μM in data set [2] (setting [5]) amounted to 11.6%.

For `O=c1cc(O)c2ccccc2o1` [4-Hydroxycoumarin], the “% Inhibition of retinoic acid metabolism” value in data set [1] was determined as 38.50%. As to `Clc1cccc(-c2cnco2)c1` [5-(3-Chlorophenyl)-1,3-oxazole], in data set [2] (setting [5]), the inhibition at 15 min, 100 μM was 8.6%. As for `Cc1ccc(-c2ncns2)cc1` [5-(4-Methylphenyl)-1,2,4-thiadiazole], the inhibition at 15 min, 100 μM in data set [2] (setting [5]) came out at 4.8%.

With `COc1ccc2ccc(=O)oc2c1` [7-Methoxycoumarin], the inhibition at 15 min, 100 μM in data set [2] (setting [5]) was 11.7%.

Consider `CCC1(c2ccc(N)cc2)CCC(=O)NC1=O` (stereo not drawn) [Aminoglutethimide], for which the inhibition at 15 min, 100 μM in data set [2] (setting [5]) was 30.8%. As to `C[C@@H]1[C@H](O)[C@@H](C)/C=C/C=C/C=C/C=C/C=C/C=C/C=C/[C@H](O[C@@H]2O[C@H](C)[C@@H](O)[C@H](N)[C@@H]2O)C[C@@H]2O[C@](O)(C[C@@H](O)C[C@@H](O)[C@H](O)CC[C@@H](O)C[C@@H](O)CC(=O)O[C@H]1C)C[C@H](O)[C@H]2C(=O)O` [Amphotericin], the inhibition at 15 min, 100 μM in data set [2] (setting [5]) was 6.24%. On the same count and under the same terms, with `CC(=O)Oc1ccccc1C(=O)O` [Aspirin] the figure was 5%. With `C[C@@H](Cc1ccccc1)N(C)Cc1ccccc1` [Benzphetamine], in data set [3], the “% Inhibition of retinoic acid metabolism” value worked out at 46.0%. For `c1ccc(-c2ccc(C(c3ccccc3)n3ccnc3)cc2)cc1` (stereo not drawn) [Bifonazole], in data set [2] (setting [5]), the inhibition at 15 min, 100 μM was 47.5%. For the compound `CN(C)CCCN1c2ccccc2Sc2ccc(Cl)cc21` [Chlorpromazine], the “% Inhibition of retinoic acid metabolism” value in data set [1] is 85.0%; in data set [1] (listed as chlorpromazine), above 50%. In addition, the IC50 (commonly the point on the concentration scale where inhibition reaches its midpoint) at 15 min in data set [2] (setting [5]) was 16.9 ± 1.7 µM. In the case of `CN/C(=N/CCSCc1nc[nH]c1C)NC#N` [Cimetidine], the inhibition at 15 min, 100 μM in data set [2] (setting [5]) came out at 1%. Still for that read-out and setting: with `Clc1ccccc1C(c1ccccc1)(c1ccccc1)n1ccnc1` [Clotrimazole] the figure was 34.4%; with `O=c1ccc2ccccc2o1` [Coumarin], 37%; with `O=C(O)c1cc(-c2ccc(F)cc2F)ccc1O` [Diflunisal], 2%.

Consider `Clc1ccc(COC(Cn2ccnc2)c2ccc(Cl)cc2Cl)cc1` (stereo not drawn) [Econazole], for which the inhibition at 15 min, 100 μM in data set [2] (setting [5]) stood at 14%. The same measure, in the same setting: with `COC1=CC(=O)C[C@@H](C)[C@]12Oc1c(Cl)c(OC)cc(OC)c1C2=O` [Griseofulvin] the figure was 0%; with `NCCc1c[nH]cn1` [Histamine], 0%; with `COc1ccc2c(c1)c(CC(=O)O)c(C)n2C(=O)c1ccc(Cl)cc1` [Indomethacin], 0%.

Turning to `CCC(C)n1ncn(-c2ccc(N3CCN(c4ccc(OCC5COC(Cn6cncn6)(c6ccc(Cl)cc6Cl)O5)cc4)CC3)cc2)c1=O` (stereo not drawn) [Itraconazole], the “% Inhibition of retinoic acid metabolism” value in data set [1] turned out to be 68.7%. Also, in data set [2] (setting [5]), the IC50 at 15 min is 17.4 ± 1 µM and the inhibition at 15 min, 100 μM is above 50%. As for `CC(=O)N1CCN(c2ccc(OCC3COC(Cn4ccnc4)(c4ccc(Cl)cc4Cl)O3)cc2)CC1` (stereo not drawn) [Ketoconazole], in data set [2] (setting [5]), the IC50 at 15 min is 13.5 ± 1.3 µM and the inhibition at 15 min, 100 μM worked out at 87.5%. As for `Clc1cccc(C(c2ccc3[nH]cnc3c2)n2ccnc2)c1` (stereo not drawn) [Liarozole], in data set [2] (setting [5]), the IC50 at 15 min came to 4.2 ± 0.1 µM and the inhibition at 15 min, 100 μM is 89%.

Turning to `Clc1ccc(COC(Cn2ccnc2)c2ccc(Cl)cc2Cl)c(Cl)c1` (stereo not drawn) [Miconazole], the inhibition at 15 min, 100 μM in data set [2] (setting [5]) came to 13.5%. Take `c1ccc(CCNCc2ccccc2)cc1` [N-Benzyl-2-phenylethanamine]: the “% Inhibition of retinoic acid metabolism” value in data set [1] is given as 85.0%; in data set [1] (listed as N-benzyl-2-phenylethanamine) it was above 50%. This compound also returned an IC50 at 15 min in data set [2] (pH 7.4) of 17.1 ± 3.2 µM. Consider `O=C(Cn1ccnc1)c1ccc2ccccc2c1` [Nafimidone], for which the inhibition at 15 min, 100 μM in data set [2] (setting [5]) is 12%. Take `CCC1(c2ccc([N+](=O)[O-])cc2)CCC(=O)NC1=O` (stereo not drawn) [Nitroglutethimide]: the “% Inhibition of retinoic acid metabolism” value in data set [1] is −1.4%. In the case of `C[C@@H]1[C@H](O)[C@@H](C)/C=C/C=C/CC/C=C/C=C/C=C/C=C/C(O[C@H]2O[C@H](C)[C@@H](O)[C@H](N)[C@@H]2O)CC2O[C@](O)(CC(O)C(O)CCC(O)CC(O)CC(O)CC(=O)O[C@H]1C)CC(O)C2C(=O)O` (stereo partly drawn) [Nystatin], in data set [1], the “% Inhibition of retinoic acid metabolism” value was 5.44%. Consider `CCC1(c2ccccc2)C(=O)NC(=O)NC1=O` [Phenobarbitone], for which the “% Inhibition of retinoic acid metabolism” value in data set [3] was 0.0%.

With `CN1C(=O)CC(c2ccccc2)C1=O` (stereo not drawn) [Phensuximide], the inhibition at 15 min, 100 μM in data set [2] (setting [5]) is 3.5%. As to `CCCC(C(=O)OCCN(CC)CC)(c1ccccc1)c1ccccc1` [Proadifen], the “% Inhibition of retinoic acid metabolism” value in data set [1] is given as 86.0%; in data set [1] (listed as proadifen), above 50%. In data set [2] (setting [5]), this compound showed an IC50 at 15 min of 1 ± 0.14 µM.

As for `CC(=O)C[C@H](c1ccccc1)c1c(O)c2ccccc2oc1=O` [R-Warfarin], the “% Inhibition of retinoic acid metabolism” value in data set [1] amounted to 3.0%. On to `CC1=C(/C=C/C(C)=C/C=C/C(C)=C/C(=O)O)C(C)(C)CCC1` [RA, All-trans-retinoic acid], for which the “developmental / teratogenic effect” value is given as “no teratogenic effects” with mouse embryo (dose of 1 mg/Kg RA, mice) and “developmental abnormalities” with mouse embryo (dose of 10 mg/Kg body weight of RA, mouse). Further, the “increase in the level of RA in mouse embryo limb buds” value in the data set on mouse embryo (dose of 10 mg/Kg body weight of RA) is given as “approximately 50 fold”. Also, the “plasma t ½” value in data set [4] was below 1 h. As for `CC(=O)C[C@@H](c1ccccc1)c1c(O)c2ccccc2oc1=O` [S-Warfarin], the “% Inhibition of retinoic acid metabolism” value in data set [1] is reported as 6.5%.

As to `c1ccc2[nH]c(-c3cscn3)nc2c1` [Thiabendazole], in data set [2] (setting [5]), the inhibition at 15 min, 100 μM was -4.31%.

For `O=C(O)/C=C\C(=O)O.S=C(NC1CCCCC1)N1CCC(c2cnc[nH]2)CC1` [Thiopermide maleate], the “% Inhibition of retinoic acid metabolism” value in data set [1] came to 3.4%.
